Data on four compounds can be found in the NIST ThermoML archive (doi:10.1021/je200646r).

± gives the expanded uncertainty stated by the source.

The conditions of data set [1]: 293.15 K; 101.33 kPa; Liquid; Vibrating tube method.
A short description of data set [2]: refractive index (Na D-line) (dimensionless). Particulars: 293.15 K; 101.33 kPa; Liquid; Standard Abbe refractometry.

Regarding `CCO` [ethanol], in data set [1], the mass density worked out at 792.05 ± 0.15 kg/m3. For the same compound, the refractive index in data set [2] is 1.36162 ± 0.0004.

For the compound `CC(C)O` [propan-2-ol], the mass density in data set [1] worked out at 785.46 ± 0.15 kg/m3. Moreover, the refractive index in data set [2] came to 1.37709 ± 0.0004.

For `CCCCCCCCCCCC` [dodecane], in data set [1], the mass density was 749.6 ± 0.31 kg/m3. Besides, the refractive index in data set [2] is listed as 1.42155 ± 0.00045.

For the compound `CO` [methanol], the mass density in data set [1] is reported as 791.46 ± 0.15 kg/m3. In data set [2], the refractive index was found to be 1.32862 ± 0.0004.

What is called mass density is the mass of a sample divided by its volume. By refractive index is commonly meant the speed of light in vacuum divided by its phase velocity in the sample.
